Molecular target: GST-hRIPK1 (8-327) (Homo sapiens (Human), UniProt Q13546)
Assay: Fluorescent Polarization Binding (FP Binding) assay
Conditions: not given

Chain of GST-hRIPK1 (8-327) (Q13546 8-327): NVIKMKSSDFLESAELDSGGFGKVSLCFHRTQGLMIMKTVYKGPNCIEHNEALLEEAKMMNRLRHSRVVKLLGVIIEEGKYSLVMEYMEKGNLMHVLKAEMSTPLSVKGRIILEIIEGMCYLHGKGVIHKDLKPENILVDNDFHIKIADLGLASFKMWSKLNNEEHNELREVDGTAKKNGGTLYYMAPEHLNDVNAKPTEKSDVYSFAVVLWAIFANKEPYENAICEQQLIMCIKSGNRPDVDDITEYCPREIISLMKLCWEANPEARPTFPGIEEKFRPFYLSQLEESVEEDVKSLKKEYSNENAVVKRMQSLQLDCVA

| IC50 | Compound |
| --- | --- |
| > 3000 nM | CN1C(=O)[C@H](NC(=O)c2nn(Cc3ccc(F)cc3)cc2F)[C@@H]2C[C@@H]2c2cccnc21 [Example 156A, 4-fluoro-1-(4-fluorobenzyl)-N-((1aR,2R,8bS)-4-methyl-3-oxo-1,1a,2,3,4,8b-hexahydrocyclopropa[d]pyrido[2,3-b]azepin-2-yl)-1H-pyrazole-3-carboxamide] |
| > 3000 nM | CN1C(=O)[C@H](NC(=O)c2nnc(Cc3ccccc3)o2)[C@@H]2C[C@@H]2c2cccnc21 [Example 157A, 5-benzyl-N-((1aR,2R,8bS)-4-methyl-3-oxo-1,1a,2,3,4,8b-hexahydrocyclopropa[d]pyrido[2,3-b]azepin-2-yl)-1,3,4-oxadiazole-2-carboxamide] |
| > 3000 nM | CN1C(=O)[C@H](NC(=O)c2nnc(Cc3ccccc3)o2)[C@@H]2C[C@@H]2c2nccnc21 [Example 177B, 5-benzyl-N-((7R,7aR,8aS)-5-methyl-6-oxo-5,6,7,7a,8,8a-hexahydrocyclopropa[d]pyrazino[2,3-b]azepin-7-yl)-1,3,4-oxadiazole-2-carboxamide] |
| > 3000 nM | CN1C(=O)[C@H](NC(=O)c2nn(Cc3ccccc3F)cc2F)CCc2nccnc21 [Example 178B, (R)-4-fluoro-1-(2-fluorobenzyl)-N-(5-methyl-6-oxo-6,7,8,9-tetrahydro-5H-pyrazino[2,3-b]azepin-7-yl)-1H-pyrazole-3-carboxamide] |
| > 3000 nM | CN1C(=O)[C@H](NC(=O)c2nn(Cc3ccccc3F)cc2F)[C@@H]2C[C@@H]2c2nccnc21 [Example 179B, 4-fluoro-1-(2-fluorobenzyl)-N-((7R,7aR,8aS)-5-methyl-6-oxo-5,6,7,7a,8,8a-hexahydrocyclopropa[d]pyrazino[2,3-b]azepin-7-yl)-1H-pyrazole-3-carboxamide] |
| > 3000 nM | CN1C(=O)[C@H](NC(=O)c2nnc(C3(c4ccccc4)CC3)o2)CCc2nccnc21 [Example 180B, (R)—N-(5-methyl-6-oxo-6,7,8,9-tetrahydro-5H-pyrazino[2,3-b]azepin-7-yl)-5-(1-phenylcyclopropyl)-1,3,4-oxadiazole-2-carboxamide] |
| > 3000 nM | Cc1ncccc1Cn1cc(F)c(C(=O)N[C@@H]2CCc3nccnc3N(C)C2=O)n1 [Example 182A, (R)-4-fluoro-N-(5-methyl-6-oxo-6,7,8,9-tetrahydro-5H-pyrazino[2,3-b]azepin-7-yl)-1-((2-methylpyridin-3-yl)methyl)-1H-pyrazole-3-carboxamide] |
| 0.1 to 1000 nM | CN1C(=O)[C@@H](NC(=O)c2nn(Cc3cnn(C)c3)cc2F)COc2cccnc21 [Example 184, (S)-4-fluoro-1-((1-methyl-1H-pyrazol-4-yl)methyl)-N-(5-methyl-4-oxo-2,3,4,5-tetrahydropyrido[3,2-b][1,4]oxazepin-3-yl)-1H-pyrazole-3-carboxamide] |

Further lines, the compound ahead of its results:

| Compound | IC50 |
| --- | --- |
| CN1C(=O)[C@@H](NC(=O)c2cc(C#N)n(Cc3ccc(F)cc3)n2)COc2cccnc21 [Example 159, (S)-5-cyano-1-(4-fluorobenzyl)-N-(5-methyl-4-oxo-2,3,4,5-tetrahydropyrido[3,2-b][1,4]oxazepin-3-yl)-1H-pyrazole-3-carboxamide] | 0.1 to 1000 nM |
| CN1C(=O)[C@H](NC(=O)c2nnc(Cc3ccccc3)o2)C2(CC2)Oc2cccnc21 [Example 160B, (R)-5-benzyl-N-(5′-methyl-4′-oxo-4′,5′-dihydro-3′H-spiro[cyclopropane-1,2′-pyrido[3,2-b][1,4]oxazepin]-3′-yl)-1,3,4-oxadiazole-2-carboxamide] | > 3000 nM |
| N#Cc1cccc(Cn2cc(F)c(C(=O)N[C@H]3C(=O)Nc4c(F)cc(F)cc4[C@H]4C[C@H]43)n2)c1 [Example 170B, 1-(3-cyanobenzyl)-N-((1aR,2R,8bS)-5,7-difluoro-3-oxo-1,1a,2,3,4,8b-hexahydrobenzo[b]cyclopropa[d]azepin-2-yl)-4-fluoro-1H-pyrazole-3-carboxamide] | > 3000 nM |
| O=C(N[C@@H]1C(=O)Nc2c(F)cc(F)cc2[C@H]2C[C@@H]12)c1nnc(Cc2ccccc2)[nH]1 [Example 176, 5-benzyl-N-((1aR,2S,8bS)-5,7-difluoro-3-oxo-1,1a,2,3,4,8b-hexahydrobenzo[b]cyclopropa[d]azepin-2-yl)-4H-1,2,4-triazole-3-carboxamide] | 0.1 to 1000 nM |
| N#Cc1cccc(Cc2nnc(C(=O)N[C@H]3C(=O)Nc4c(F)cc(F)cc4[C@H]4C[C@H]43)[nH]2)c1 [Example 181A, 5-(3-cyanobenzyl)-N-((1aR,2R,8bS)-5,7-difluoro-3-oxo-1,1a,2,3,4,8b-hexahydrobenzo[b]cyclopropa[d]azepin-2-yl)-4H-1,2,4-triazole-3-carboxamide] | > 3000 nM |
| [2H]C([2H])([2H])N1C(=O)[C@H](NC(=O)c2nn(Cc3ccccc3)cc2F)[C@@H]2C[C@@H]2c2cc(S(C)(=O)=O)ccc21 [Example 183A, 1-benzyl-4-fluoro-N-((1aR,2R,8bS)-4-trideuteriomethyl-7-(methylsulfonyl)-3-oxo-1,1a,2,3,4,8b-hexahydrobenzo[b]cyclopropa[d]azepin-2-yl)-1H-pyrazole-3-carboxamide] | > 3000 nM |
| CN1C(=O)[C@@H](NC(=O)c2nnc(Cc3ccccc3)o2)CCc2nccnc21 [Example 190, (S)-5-benzyl-N-(5-methyl-6-oxo-6,7,8,9-tetrahydro-5H-pyrazino[2,3-b]azepin-7-yl)-1,3,4-oxadiazole-2-carboxamide] | 0.1 to 1000 nM |
| C[C@H]1Oc2ncccc2N(C)C(=O)[C@H]1NC(=O)c1nnc(Cc2ccccc2)o1 [Example 193, 5-benzyl-N-((3S,4R)-1,4-dimethyl-2-oxo-1,2,3,4-tetrahydropyrido[2,3-b][1,4]oxazepin-3-yl)-1,3,4-oxadiazole-2-carboxamide] | 0.1 to 1000 nM |
| CN1C(=O)[C@@H](NC(=O)c2ncc(Cc3ccccc3)o2)[C@H]2C[C@H]2c2nccnc21 [Example 194, 5-benzyl-N-((7S,7aS,8aR)-5-methyl-6-oxo-5,6,7,7a,8,8a-hexahydrocyclopropa[d]pyrazino[2,3-b]azepin-7-yl)oxazole-2-carboxamide] | 0.1 to 1000 nM |
| C[C@H]1Oc2cccnc2N(C)C(=O)[C@H]1NC(=O)c1cnn(Cc2ccccc2)n1 [Example 204, 2-benzyl-N-((2R,3S)-2,5-dimethyl-4-oxo-2,3,4,5-tetrahydropyrido[3,2-b][1,4]oxazepin-3-yl)-2H-1,2,3-triazole-4-carboxamide] | 0.1 to 1000 nM |

Test system: FADD-deficient Jurkat cells
Assay: Cellular necroptosis assay (human TNFα-induced necrosis, CellTiter-Glo)
Format: cell-based
Conditions: Homo sapiens, Jurkat, 48 h, TNFα 10 ng/mL, read-out: Cell IC50

| Compound | IC50 |
| --- | --- |
| CN1C(=O)[C@@H](NC(=O)c2nnc(Cc3ccccc3)[nH]2)C[C@@H](F)c2ccccc21 (mixture of isomers) [Example 11, 5-benzyl-N-((3S,5R)-5-fluoro-1-methyl-2-oxo-2,3,4,5-tetrahydro-1H-benzo[b]azepin-3-yl)-4H-1,2,4-triazole-3-carboxamide and 5-benzyl-N-((3R,5S)-5-fluoro-1-methyl-2-oxo-2,3,4,5-tetrahydro-1H-benzo[b]azepin-3-yl)-4H-1,2,4-triazole-3-carboxamide] | 0.1 to 1000 nM |
| CN1C(=O)[C@H](NC(=O)c2nnc(Cc3ccccc3)[nH]2)C[C@H](F)c2ccccc21 (mixture of isomers) [Example 11B, 5-benzyl-N-((3S,5R)-5-fluoro-1-methyl-2-oxo-2,3,4,5-tetrahydro-1H-benzo[b]azepin-3-yl)-4H-1,2,4-triazole-3-carboxamide and 5-benzyl-N-((3R,5S)-5-fluoro-1-methyl-2-oxo-2,3,4,5-tetrahydro-1H-benzo[b]azepin-3-yl)-4H-1,2,4-triazole-3-carboxamide] | 0.1 to 1000 nM |
| CN1C(=O)[C@@H](NC(=O)c2nnc(Cc3ccccc3)[nH]2)C[C@H](F)c2ccccc21 (mixture of isomers) [Example 12, 5-benzyl-N-((3S,5S)-5-fluoro-1-methyl-2-oxo-2,3,4,5-tetrahydro-1H-benzo[b]azepin-3-yl)-4H-1,2,4-triazole-3-carboxamide and 5-benzyl-N-((3R,5R)-5-fluoro-1-methyl-2-oxo-2,3,4,5-tetrahydro-1H-benzo[b]azepin-3-yl)-4H-1,2,4-triazole-3-carboxamide] | 0.1 to 1000 nM |
| CN1C(=O)[C@H](NC(=O)c2nnc(Cc3ccccc3)[nH]2)C[C@@H](F)c2ccccc21 (mixture of isomers) [Example 12B, 5-benzyl-N-((3S,5S)-5-fluoro-1-methyl-2-oxo-2,3,4,5-tetrahydro-1H-benzo[b]azepin-3-yl)-4H-1,2,4-triazole-3-carboxamide and 5-benzyl-N-((3R,5R)-5-fluoro-1-methyl-2-oxo-2,3,4,5-tetrahydro-1H-benzo[b]azepin-3-yl)-4H-1,2,4-triazole-3-carboxamide] | 0.1 to 1000 nM |
| CN1C(=O)[C@@H](NC(=O)c2cc(Cc3ccccc3)on2)CCc2sc(Cl)cc21 (stereo in doubt) [Example 1A, 5-Benzyl-N-(2-chloro-4-methyl-5-oxo-4H,5H,6H,7H,8H-thieno[3,2-b]azepin-6-yl)-1,2-oxazole-3-carboxamide] | 0.1 to 1000 nM |
| CN1C(=O)C(NC(=O)c2cc(Cc3ccccc3)on2)[C@@H]2C[C@@H]2c2ccccc21 (stereo in doubt) [Example 7B, 5-benzyl-N-((2S)-4-methyl-3-oxo-1,1a,2,3,4,8b-hexahydrobenzo[b]cyclopropa[d]azepin-2-yl)isoxazole-3-carboxamide] | 1000 to 10000 nM |

Same assay, conditions: TNFα 10 ng/mL, 48 h; read-out: Cell IC50

| Compound | IC50 |
| --- | --- |
| CN1C(=O)[C@@H](NC(=O)c2nnc(Cc3ccccc3)[nH]2)C[C@@H](F)c2ccccc21 (mixture of isomers) [Example 11A, 5-benzyl-N-((3S,5R)-5-fluoro-1-methyl-2-oxo-2,3,4,5-tetrahydro-1H-benzo[b]azepin-3-yl)-4H-1,2,4-triazole-3-carboxamide and 5-benzyl-N-((3R,5S)-5-fluoro-1-methyl-2-oxo-2,3,4,5-tetrahydro-1H-benzo[b]azepin-3-yl)-4H-1,2,4-triazole-3-carboxamide] | 0.1 to 1000 nM |
| CN1C(=O)[C@@H](NC(=O)c2nnc(Cc3ccccc3)[nH]2)C[C@H](F)c2ccccc21 (mixture of isomers) [Example 12A, 5-benzyl-N-((3S,5S)-5-fluoro-1-methyl-2-oxo-2,3,4,5-tetrahydro-1H-benzo[b]azepin-3-yl)-4H-1,2,4-triazole-3-carboxamide and 5-benzyl-N-((3R,5R)-5-fluoro-1-methyl-2-oxo-2,3,4,5-tetrahydro-1H-benzo[b]azepin-3-yl)-4H-1,2,4-triazole-3-carboxamide] | 0.1 to 1000 nM |

From patent US10604535B2, “Compounds, compositions and methods” (Denali Therapeutics Inc., priority 2016, dated 2020)
